Experimental data taken from US10189788B2, “Substituted N,2-diarylquinoline-4-carboxamides and the use thereof as anti-inflammatory agents” (BAYER PHARMA AKTIENGESELLSCHAFT, priority 2014, dated 2019).

target: T1, Human FP Receptor (Homo sapiens (Human), UniProt P43088); assay: In vitro test of inhibition of human FP receptor activity, variant B-1A (PGF2α-induced calcium flux in FP-expressing CHEM1 cells); type: cell-based; conditions: calcium flux induced by 3 nM PGF2α, Fluo-8, some mean values from multiple determinations
T1 sequence (P43088 whole entry): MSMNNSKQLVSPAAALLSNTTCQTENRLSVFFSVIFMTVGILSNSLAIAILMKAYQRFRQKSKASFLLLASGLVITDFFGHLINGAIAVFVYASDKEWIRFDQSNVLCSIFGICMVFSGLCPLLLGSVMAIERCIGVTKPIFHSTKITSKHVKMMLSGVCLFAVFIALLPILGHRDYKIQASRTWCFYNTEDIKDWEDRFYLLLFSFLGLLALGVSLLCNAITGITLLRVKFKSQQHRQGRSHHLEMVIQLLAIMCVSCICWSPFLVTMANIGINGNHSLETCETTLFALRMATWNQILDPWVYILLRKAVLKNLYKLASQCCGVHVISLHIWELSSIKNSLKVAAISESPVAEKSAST
Description: • BSA bovine serum albumin • CRTH2 chemoattractant receptor-homologous molecule expressed on T helper type 2 cells • DMEM Dulbecco's modified Eagle's medium • DMSO dimethyl sulfoxide • DP PGD2 receptor • EC50 half-maximum effective concentration • em. emission • EP PGE2 receptor • ex. excitation • FCS fetal calf serum • FP PGF2α receptor • HEPES 2-[4-(2-hydroxyethyl)piperazin-1-yl]ethanesulfonic acid • IC50 half-maximum inhibitory concentration • IP PGI2 receptor • MES 2-(N-morpholino)ethanesulfonic acid • Pen/Strep penicillin/streptomycin • PGD2 prostaglandin D2 • PGE2 prostaglandin E2 • PGF2α prostaglandin F2α • PGI2 prostaglandin […] • TC tissue culture • TP thromboxane A2 receptor • Tris tris(hydroxymethyl)aminomethane • v/v volume to volume ratio (of a solution) • w/w weight to weight ratio (of a solution) B-1.

Row | SMILES | IC50 [nM]
1 | Cc1c(-c2ccccc2)nc2ccc(Br)cc2c1C(=O)Nc1ccc(C(=O)O)cc1F [Example 50, Sodium 4-{[(6-bromo-3-methyl-2-phenylquinolin-4-yl)carbonyl]amino}-3-fluorobenzoate] | 37
2 | Cc1c(-c2ccccc2)nc2ccc(Br)cc2c1C(=O)Nc1ccc(C(=O)O)cc1[S+](C)[O-] (stereo not shown) [Example 25, 4-{[(6-Bromo-3-methyl-2-phenylquinolin-4-yl)carbonyl]amino}-3-(methylsulfinyl)benzoic acid] | 720
3 | Cc1c(-c2ccccc2)nc2ccc(F)cc2c1C(=O)Nc1ccc(C(=O)O)cc1F [Example 29, 3-Fluoro-4-{[(6-fluoro-3-methyl-2-phenylquinolin-4-yl)carbonyl]amino}benzoic acid] | 890
4 | Cc1c(-c2ccccc2)nc2c(C)cc(Br)cc2c1C(=O)Nc1ccc(C(=O)O)cc1 [Example 58, 4-{[(6-Bromo-3,8-dimethyl-2-phenylquinolin-4-yl)carbonyl]amino}benzoic acid] | 557
5 | CCc1c(-c2ccccc2)nc2ccc(Br)cc2c1C(=O)Nc1ccc(C(=O)O)cc1F [Example 39, 4-{[(6-Bromo-3-ethyl-2-phenylquinolin-4-yl)carbonyl]amino}-3-fluorobenzoic acid] | 190
6 | Cc1c(-c2ccccc2)nc2ccc(Br)cc2c1C(=O)Nc1cc(F)c(C(=O)O)cc1F [Example 66, 4-{[(6-Bromo-3-methyl-2-phenylquinolin-4-yl)carbonyl]amino}-2,5-difluorobenzoic acid] | 282
7 | Cc1c(-c2ccccc2)nc2ccc(Br)cc2c1C(=O)Nc1ccc(C(=O)O)cc1C#N [Example 16, 4-{[(6-Bromo-3-methyl-2-phenylquinolin-4-yl)carbonyl]amino}-3-cyanobenzoic acid] | 278
8 | Cc1ccc2nc(-c3ccccc3)c(C)c(C(=O)Nc3ccc(C(=O)O)cc3F)c2c1 [Example 31, 4-{[(3,6-Dimethyl-2-phenylquinolin-4-yl)carbonyl]amino}-3-fluorobenzoic acid] | 165
9 | CSc1cc(C(=O)O)ccc1NC(=O)c1c(C)c(-c2ccccc2)nc2ccc(Br)cc12 [Example 24, 4-{[(6-Bromo-3-methyl-2-phenylquinolin-4-yl)carbonyl]amino}-3-(methylsulfanyl)benzoic acid] | 124
10 | Cc1c(-c2ccccc2)nc2ccc(C(F)F)cc2c1C(=O)Nc1ccc(C(=O)O)cc1F [Example 64, 4-({[6-(Difluoromethyl)-3-methyl-2-phenylquinolin-4-yl]carbonyl}amino)-3-fluorobenzoic acid] | 362
11 | Cc1c(-c2ccccc2)nc2c(C)cc(Br)cc2c1C(=O)Nc1ccc(C(=O)O)cc1F [Example 78, 4-{[(6-Bromo-3,8-dimethyl-2-phenylquinolin-4-yl)carbonyl]amino}-3-fluorobenzoic acid] | 154
12 | Cc1cc(C(=O)O)ccc1NC(=O)c1c(C)c(-c2ccccc2)nc2ccc(Br)cc12 [Example 14, 4-{[(6-Bromo-3-methyl-2-phenylquinolin-4-yl)carbonyl]amino}-3-methylbenzoic acid] | 617
13 | Cc1c(-c2ccccc2)nc2ccc(Br)cc2c1C(=O)Nc1ccc(C(=O)O)cc1N [Example 18, 3-Amino-4-{[(6-bromo-3-methyl-2-phenylquinolin-4-yl)carbonyl]amino}benzoic acid] | 335
14 | COc1c(-c2ccccc2)nc2ccc(Br)cc2c1C(=O)Nc1ccc(C(=O)O)cc1F [Example 74, 4-{[(6-Bromo-3-methoxy-2-phenylquinolin-4-yl)carbonyl]amino}-3-fluorobenzoic acid] | 220
15 | Cc1c(-c2ccccc2)nc2ccc(OC(F)(F)F)cc2c1C(=O)Nc1ccc(C(=O)O)cc1F [Example 35, 3-Fluoro-4-({[3-methyl-2-phenyl-6-(trifluoromethoxy)quinolin-4-yl]carbonyl}amino)benzoic acid] | 290
16 | Cc1nc(C(=O)O)ccc1NC(=O)c1c(C)c(-c2ccccc2)nc2ccc(Br)cc12 [Example 5, 5-{[(6-Bromo-3-methyl-2-phenylquinolin-4-yl)carbonyl]amino}-6-methylpyridine-2-carboxylic acid] | 905
17 | COc1cc(C(=O)O)ccc1NC(=O)c1c(C)c(-c2ccccc2)nc2ccc(Br)cc12 [Example 21, 4-{[(6-Bromo-3-methyl-2-phenylquinolin-4-yl)carbonyl]amino}-3-methoxybenzoic acid] | 204
18 | CCNC(=O)Nc1cc(C(=O)O)ccc1NC(=O)c1c(C)c(-c2ccccc2)nc2ccc(Br)cc12 [Example 20, 4-{[(6-Bromo-3-methyl-2-phenylquinolin-4-yl)carbonyl]amino}-3-[(ethylcarbamoyl)amino]benzoic acid] | 530
19 | Cc1c(-c2ccccc2)nc2ccc(Br)cc2c1C(=O)Nc1cnc(C(=O)O)cn1 [Example 3, 5-{[(6-Bromo-3-methyl-2-phenylquinolin-4-yl)carbonyl]amino}pyrazine-2-carboxylic acid] | 170
20 | Cc1c(-c2ccccc2)nc2ccc(Br)cc2c1C(=O)Nc1ccc(C(=O)O)c(F)c1 [Example 8, 4-{[(6-Bromo-3-methyl-2-phenylquinolin-4-yl)carbonyl]amino}-2-fluorobenzoic acid] | 795

Now from value to compound:

Row | IC50 [nM] | SMILES
21 | 105 | Cc1c(-c2ccccc2)nc2ccc(Br)cc2c1C(=O)Nc1ccc(C(=O)O)c(F)c1F [Example 65, 4-{[(6-Bromo-3-methyl-2-phenylquinolin-4-yl)carbonyl]amino}-2,3-difluorobenzoic acid]
22 | 27 | O=C(O)c1ccc(NC(=O)c2c(C3CC3)c(-c3ccccc3)nc3ccc(Br)cc23)c(F)c1 [Example 77, 4-{[(6-Bromo-3-cyclopropyl-2-phenylquinolin-4-yl)carbonyl]amino}-3-fluorobenzoic acid]
23 | 97 | CCS(=O)(=O)c1cc(C(=O)O)c(OC)cc1NC(=O)c1c(C)c(-c2ccccc2)nc2ccc(Br)cc12 [Example 27, 4-{[(6-Bromo-3-methyl-2-phenylquinolin-4-yl)carbonyl]amino}-5-(ethylsulfonyl)-2-methoxybenzoic acid]
24 | 33 | Cc1c(-c2cccc(F)c2)nc2ccc(Br)cc2c1C(=O)Nc1ccc(C(=O)O)cc1F [Example 44, 4-({[6-Bromo-2-(3-fluorophenyl)-3-methylquinolin-4-yl]carbonyl}amino)-3-fluorobenzoic acid]
25 | 27 | COCS(=O)(=O)c1cc(C(=O)O)ccc1NC(=O)c1c(C)c(-c2ccccc2)nc2ccc(Br)cc12 [Example 60, 4-{[(6-Bromo-3-methyl-2-phenylquinolin-4-yl)carbonyl]amino}-3-[(methoxymethyl)sulfonyl]benzoic acid]
26 | 22 | Cc1c(-c2ccccc2)nc2ccc(Br)cc2c1C(=O)Nc1c(F)cc(C(=O)O)cc1F [Example 12, 4-{[(6-Bromo-3-methyl-2-phenylquinolin-4-yl)carbonyl]amino}-3,5-difluorobenzoic acid]
27 | 45 | Cc1c(-c2ccccc2)nc2ccc(Br)cc2c1C(=O)Nc1ccc(C(=O)O)cc1C(F)(F)F [Example 15, 4-{[(6-Bromo-3-methyl-2-phenylquinolin-4-yl)carbonyl]amino}-3-(trifluoromethyl)benzoic acid]
28 | 41 | Cc1c(-c2ccccc2)nc2ccc(Br)cc2c1C(=O)Nc1ccc(C(=O)O)cc1Br [Example 10, 3-Bromo-4-{[(6-bromo-3-methyl-2-phenylquinolin-4-yl)carbonyl]amino}benzoic acid]
29 | 102 | Cc1c(-c2ccccc2)nc2ccc(Br)cc2c1C(=O)Nc1ccc(C(N)=O)cc1F [Example 48, 6-Bromo-N-(4-carbamoyl-2-fluorophenyl)-3-methyl-2-phenylquinoline-4-carboxamide]
30 | 33 | Cc1c(-c2ccccc2)nc2cc(Cl)c(Cl)cc2c1C(=O)Nc1ccc(C(=O)O)cc1F [Example 42, 4-{[(6,7-Dichloro-3-methyl-2-phenylquinolin-4-yl)carbonyl]amino}-3-fluorobenzoic acid]
31 | 6 | Cc1c(-c2ccccc2)nc2ccc(I)cc2c1C(=O)Nc1ccc(C(=O)O)cc1F [Example 30, 3-Fluoro-4-{[(6-iodo-3-methyl-2-phenylquinolin-4-yl)carbonyl]amino}benzoic acid]
32 | 52 | Cc1c(-c2ccc(F)cc2)nc2ccc(Br)cc2c1C(=O)Nc1ccc(C(=O)O)cc1F [Example 43, 4-({[6-Bromo-2-(4-fluorophenyl)-3-methylquinolin-4-yl]carbonyl}amino)-3-fluorobenzoic acid]
33 | 93 | Cc1c(-c2ccccc2)nc2ccc(C(F)(F)F)cc2c1C(=O)Nc1ccc(C(=O)O)cc1F [Example 34, 3-Fluoro-4-({[3-methyl-2-phenyl-6-(trifluoromethyl)quinolin-4-yl]carbonyl}amino)benzoic acid]
34 | 31 | Cc1c(-c2ccccc2)nc2ccc(Br)cc2c1C(=O)Nc1ccc(C(=O)O)cc1S(=O)(=O)C(F)(F)F [Example 53, 4-{[(6-Bromo-3-methyl-2-phenylquinolin-4-yl)carbonyl]amino}-3-[(trifluoromethyl)sulfonyl]benzoic acid]

target: T1, Human FP Receptor; assay: In vitro test of inhibition of human FP receptor activity, variant B-1B (PGF2α-induced calcium flux in recombinant FP-expressing CHO cells with GCaMP6); type: cell-based; conditions: recombinant FP-expressing CHO cells with GCaMP6, calcium flux induced by 3 nM PGF2α, some mean values from multiple determinations
Description: 470 nm/em. 525 nm in a fluorescence measuring instrument (FLIPR Tetra®, MolecularDevices) for 120 seconds.

Row | IC50 [nM] | SMILES
35 | 60 | Cc1c(-c2ccccc2)nc2ccc(Br)cc2c1C(=O)Nc1ccc(C(=O)O)c(F)c1F [Example 65, 4-{[(6-Bromo-3-methyl-2-phenylquinolin-4-yl)carbonyl]amino}-2,3-difluorobenzoic acid]
36 | 98 | O=C(O)c1ccc(NC(=O)c2c(F)c(-c3ccccc3)nc3ccc(Br)cc23)c(F)c1 [Example 73, 4-{[(6-Bromo-3-fluoro-2-phenylquinolin-4-yl)carbonyl]amino}-3-fluorobenzoic acid]

Row | SMILES | IC50 [nM]
37 | Cc1c(-c2ccccc2)nc2ccc(Br)cc2c1C(=O)Nc1ccc(C(=O)O)cc1F [Example 50, Sodium 4-{[(6-bromo-3-methyl-2-phenylquinolin-4-yl)carbonyl]amino}-3-fluorobenzoate] | 44
